Assay results: PubChem BioAssay AID1990 (Broad Institute, 2009)
Results filed as inconclusive are left out. The source made the active and inactive calls. How the calls were made is not given here.

Target: Luciferin 4-monooxygenase (Photinus pyralis) (UniProt P08659)
Assay: Photinus pyralis luciferase inhibitors, H4 neuroglioma cells, confirmatory dose response, luminescence (AID 1990)

Chain of Luciferin 4-monooxygenase (Photinus pyralis) (P08659 whole entry, looked up): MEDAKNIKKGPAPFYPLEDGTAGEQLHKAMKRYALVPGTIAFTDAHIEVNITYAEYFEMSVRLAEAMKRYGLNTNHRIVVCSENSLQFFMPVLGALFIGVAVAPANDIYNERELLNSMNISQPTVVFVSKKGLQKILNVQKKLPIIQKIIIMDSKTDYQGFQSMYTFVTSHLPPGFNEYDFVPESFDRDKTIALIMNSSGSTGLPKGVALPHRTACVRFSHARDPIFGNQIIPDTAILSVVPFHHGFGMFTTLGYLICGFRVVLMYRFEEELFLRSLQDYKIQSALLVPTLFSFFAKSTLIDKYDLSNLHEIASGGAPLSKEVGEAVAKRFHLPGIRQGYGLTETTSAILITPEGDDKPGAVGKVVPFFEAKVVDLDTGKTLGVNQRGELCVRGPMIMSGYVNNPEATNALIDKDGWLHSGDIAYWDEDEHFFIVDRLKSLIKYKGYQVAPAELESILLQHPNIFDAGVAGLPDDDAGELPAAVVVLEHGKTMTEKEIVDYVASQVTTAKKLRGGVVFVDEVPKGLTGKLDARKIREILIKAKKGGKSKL

| Compound | EC50 |
| --- | --- |
| COc1ccc(O)c2c(=O)c3c(OC)cc4c(c3oc12)C1C=COC1O4 (stereo not drawn) | < 0.1 µM |
| C=C(C=O)CC1CC(O)[C@]2(C)OC3CC4OC5C[C@]6(C)O[C@]7(C)CCC8OC9C[C@]%10(C)OC%11C(C)=CC(=O)OC%11CC%10OC9C[C@@H](C)C8OC7CC6O[C@]5(C)CC5OC5C4OC3CC2O1 (stereo partly drawn) | > 12 µM (inactive) |
| C#CCOCCOCCOCCNc1nc(N2CCN(C(=O)CCCCCCCCCCNC(=O)[C@H](CO)n3cc(CCCSC)nn3)CC2)nc(N2CCN(C(=O)CCCCCCCCCCNC(=O)[C@H](CCCCN)n3cc(C[C@@H](C)CC)nn3)CC2)n1 | 7.24 µM |
